Columns and labels:
Assay type in all cases: cell-based, human
[1] = test system: Circulating Tumour Cells (CTCs) from a patient with colon cancer (sigmoid colon cancer); assay: Drug response score assay on CTCs from blood, Example 8; design: key to Drug response score, conc. 1 / Drug response score, conc. 2 / Drug response score, conc. 3 / Drug response score, conc. 4: normalized drug response metric (Gupta et al. 2020); details: for Drug response score, conc. 1: conc. 1 of each drug as in Table 24; for Drug response score, conc. 1 / Drug response score, conc. 2 / Drug response score, conc. 3 / Drug response score, conc. 4: CTCs, t96h; for Drug response score, conc. 2: conc. 2 of each drug as in Table 24; for Drug response score, conc. 3: conc. 3 of each drug as in Table 24; for Drug response score, conc. 4: conc. 4 of each drug as in Table 24; for Drug sensitivity as calculated by the assay (interpretation of Drug Response Scores): sigmoid colon cancer CTCs, Table 26
Procedure, shortened: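 EpCAM+ CTCs isolated from patient blood by CD45 depletion then EpCAM bead selection, and imaged with RealTime-Glo MT viability and CellTox Green cytotoxicity reagents. Agents added, cells cultured at 37° C, 5% CO2 for 48 h, re-dosed, then a further 48 h. Score calculated by normalized drug response metric from t0 and t96h readouts against blank-well controls.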

[2] = test system: Circulating Tumour Cells (CTCs) from a patient with sex cord stromal tumour, ovarian tumour; assay: Drug response score assay on CTCs from blood, Example 4; design: key to Drug response score, conc. 1 / Drug response score, conc. 2 / Drug response score, conc. 3 / Drug response score, conc. 4: normalized drug response metric (Gupta et al. 2020); details: for Drug response score, conc. 1: conc. 1: Cyclo 2.5 μg/ml, Vinc 10 ng/ml, Etop 1 μg/ml, Bini 100 ng/ml, Doxo 10 ng/ml; for Drug response score, conc. 1 / Drug response score, conc. 2 / Drug response score, conc. 3 / Drug response score, conc. 4: CTCs, t96h; for Drug response score, conc. 2: conc. 2: Cyclo 10 μg/ml, Vinc 20 ng/ml, Etop 4 μg/ml, Bini 200 ng/ml, Doxo 30 ng/ml; for Drug response score, conc. 3: conc. 3: Cyclo 40 μg/ml, Vinc 40 ng/ml, Etop 20 μg/ml, Bini 400 ng/ml, Doxo 90 ng/ml; for Drug response score, conc. 4: conc. 4: Cyclo 160 μg/ml, Vinc 80 ng/ml, Etop 100 μg/ml, Bini 800 ng/ml, Doxo 270 ng/ml; for effectiveness on Circulating Tumour Cells (CTCs) under laboratory conditions / Drug sensitivity as calculated by the assay (interpretation of Drug Response Scores): sex cord stromal / ovarian tumour CTCs; for Drug sensitivity as calculated by the assay (interpretation of Drug Response Scores): Table 14
Procedure: CD45^+ cells and circulating tumour cells (CTCs) were isolated from a blood sample provided by each subject.
CD45 separation was performed by adding human CD45 microbeads (50 μl/ml blood), incubating for 15 minutes at 4° C. and then processing using an AutoMACS machine. This separates the blood sample into CD45^+ and CD45^−cells in 2 separate falcons. The falcon tubes are then centrifuged at 1200 rpm for 5 minutes.
The supernatant was removed from the CD45^−falcon tube, and the CD45^−cells contacted with 100 μl of FcR block and 100 μl of CD326 (EpCAM) MicroBeads, followed by incubation at […] 4° C. for 30 minutes. The CD45^−cells were then processed using an AutoMACS machine to separate the EpCAM positive and negative cells into 2 separate falcon tubes. The EpCAM-cells were discarded. The supernatant was removed from the EpCAM^+ cells, and the cells resuspended in DMEM with 2 μl Cell Tox, 2 μl MT and 2 μl MT. 20 μl of the resuspended pellet was then added to all sample wells excluding a blank. After all wells are added to, a cell count was conducted on the […] to determine the number of circulating tumour cells (CTCs).
The different cell types were each divided equally into populations, depending on the number of drugs/concentrations to be tested and plated on a cell-culture plate pre-coated with a scaffold of polycaprolactone (PCL) electrospun fibres and incubated at 37° C., 5% CO2, for 5 to (typically 10) minutes to facilitate cell attachment. After attachment, an initial imaging step was carried out using the RealTime-Glo™ MT assay from Promega (Catalogue No. G9711)) and the CellTox™ Green Cytotoxicity Assay (Promega, Catalogue No. G8741), carried out according to manufacturer's instructions. Following this initial imagining, the immunotherapeutic and/or chemotherapeutic agents were added to the cell populations as indicated below. After 10 minutes, the imagining step was repeated. The cell populations were then incubated at 37° C., 5% CO2 for 48 hours. The imaging step was then repeated. The cell populations were then re-dosed with the same immunotherapeutic and/or chemotherapeutic agents as indicated below, and incubated at 37° C., 5% CO2 for a further 48 hours. After this second 48 hour incubation, the imagining step was repeated for a final time.
At the end of this culture period, dose response scores were calculated using a normalized drug response metric as described in Gupta et al. (Communications Biology volume 3, Article number: 42 (2020), https://doi.org/10.1038/s42003-020-0765-z). The start readout for a given immunotherapeutic or chemotherapeutic agent at a given concentration was the to readout for said immunotherapeutic or chemotherapeutic agent at a specified concentration. The end readout for a given immunotherapeutic or chemotherapeutic agent at a given concentration was the final timepoint reading (t96h) for said immunotherapeutic or chemotherapeutic agent at a specified concentration.
The positive control start readout for a given drug/concentration was the to readout for the corresponding drug at a specified concentration. The positive control end readout for the corresponding drug at a specified concentration was the final timepoint reading (t96h) for the corresponding blank well.
The negative control start and end readouts for a given immunotherapeutic or chemotherapeutic agent at a given concentration were the to and final timepoint reading (t96h) respectively for blank cell or blank immuno cell well respectively.
The sensitivity or resistance of a subject's cancer to a given immunotherapeutic or chemotherapeutic agent was determined based on the calculated drug response score as shown in Table 2.
Blood samples from a patient with sex cord stromal tumour, ovarian tumour (epitheliod neoplasm, stage 3 recurrence after surgery (resection) and previous chemotherapy) were received on 19 Jul. 2021 and tested using a 5 drug panel. […]

[3] = test system: Circulating Tumour Cells (CTCs) from a patient with head and neck cancer (squamous cell carcinoma); assay: Drug response score assay on CTCs from blood, Example 6; details: for Drug response score, conc. 1: conc. 1: Ifos 0.125 μg/ml, Gemcit 2 μg/ml, Doxo 10 ng/ml, Etop 1 μg/ml, Metho 0.5 μg/ml, Capecit 200 μg/ml, Vinor 20 μg/ml; for Drug response score, conc. 1 / Drug response score, conc. 2 / Drug response score, conc. 3 / Drug response score, conc. 4: CTCs, t96h; for Drug response score, conc. 2: conc. 2: Ifos 0.25 μg/ml, Gemcit 10 μg/ml, Doxo 30 ng/ml, Etop 4 μg/ml, Metho 1 μg/ml, Capecit 300 μg/ml, Vinor 40 μg/ml; for Drug response score, conc. 3: conc. 3: Ifos 5 μg/ml, Gemcit 20 μg/ml, Doxo 90 ng/ml, Etop 20 μg/ml, Metho 2 μg/ml, Capecit 400 μg/ml, Vinor 80 μg/ml; for Drug response score, conc. 4: conc. 4: Ifos 10 μg/ml, Gemcit 40 μg/ml, Doxo 270 ng/ml, Etop 100 μg/ml, Metho 4 μg/ml, Capecit 600 μg/ml, Vinor 200 μg/ml; for effectiveness on Circulating Tumour Cells under laboratory conditions / Drug sensitivity as calculated by the assay (interpretation of Drug Response Scores): head and neck cancer CTCs; for Drug sensitivity as calculated by the assay (interpretation of Drug Response Scores): Table 20
Procedure, shortened: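 EpCAM+ CTCs isolated after CD45 depletion were plated on PCL electrospun fibre scaffolds and read by RealTime-Glo MT and CellTox Green imaging before and 10 min after drug addition, at 48 h, then re-dosed and read at 96 h. Normalized drug response scores derived per Gupta et al. from start and t96h readouts against blank-well controls.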

SMILES: CC(=O)O[C@H]1C(=O)[C@@]2(C)[C@H]([C@H](OC(=O)c3ccccc3)[C@]3(O)C[C@H](OC(=O)[C@H](O)[C@@H](NC(=O)c4ccccc4)c4ccccc4)C(C)=C1C3(C)C)[C@]1(OC(C)=O)CO[C@@H]1C[C@@H]2O [Paclitaxel]
- Drug response score, conc. 1 [1]: −0.8976
- Drug response score, conc. 2 [1]: −0.1500
- Drug response score, conc. 3 [1]: −0.5818
- Drug response score, conc. 4 [1]: −0.8009
- Drug sensitivity as calculated by the assay (interpretation of Drug Response Scores) [1]: Sensitive (S++)

SMILES: COc1cc([C@@H]2c3cc4c(cc3[C@@H](O[C@@H]3O[C@@H]5CO[C@@H](C)O[C@H]5[C@H](O)[C@H]3O)[C@H]3COC(=O)[C@H]23)OCO4)cc(OC)c1O [Etoposide]
- Drug response score, conc. 1 [2]: 0.79
- Drug response score, conc. 2 [2]: 1.06
- Drug response score, conc. 3 [2]: 1.19
- Drug response score, conc. 4 [2]: 1.35
- effectiveness on Circulating Tumour Cells (CTCs) under laboratory conditions [2]: not effective
- Drug sensitivity as calculated by the assay (interpretation of Drug Response Scores) [2]: Resistant
- Drug response score, conc. 1 [3]: 0.9372
- Drug response score, conc. 2 [3]: 0.6295
- Drug response score, conc. 3 [3]: 0.9862
- Drug response score, conc. 4 [3]: 0.5135
- effectiveness on Circulating Tumour Cells under laboratory conditions [3]: Sensitive S+
- Drug sensitivity as calculated by the assay (interpretation of Drug Response Scores) [3]: Sensitive (S+)
- Drug response score, conc. 1 [1]: −0.4099
- Drug response score, conc. 2 [1]: −0.6338
- Drug response score, conc. 3 [1]: −0.6648
- Drug response score, conc. 4 [1]: 0.1129
- Drug sensitivity as calculated by the assay (interpretation of Drug Response Scores) [1]: Sensitive (S++)

SMILES: COc1cccc2c1C(=O)c1c(O)c3c(c(O)c1C2=O)C[C@@](O)(C(=O)CO)C[C@@H]3O[C@H]1C[C@H](N)[C@H](O)[C@H](C)O1 [Doxorubicin]
- Drug response score, conc. 1 [2]: 0.68
- Drug response score, conc. 2 [2]: 0.93
- Drug response score, conc. 3 [2]: 0.54
- Drug response score, conc. 4 [2]: 0.93
- effectiveness on Circulating Tumour Cells (CTCs) under laboratory conditions [2]: show effectiveness
- Drug sensitivity as calculated by the assay (interpretation of Drug Response Scores) [2]: Sensitive (S++)
- Drug response score, conc. 1 [3]: 0.7699
- Drug response score, conc. 2 [3]: 0.9452
- Drug response score, conc. 3 [3]: 0.6229
- Drug response score, conc. 4 [3]: 0.7995
- effectiveness on Circulating Tumour Cells under laboratory conditions [3]: Sensitive S+
- Drug sensitivity as calculated by the assay (interpretation of Drug Response Scores) [3]: Sensitive (S+)
- Drug response score, conc. 1 [1]: −0.0102
- Drug response score, conc. 2 [1]: −0.0852
- Drug response score, conc. 3 [1]: −0.2828
- Drug sensitivity as calculated by the assay (interpretation of Drug Response Scores) [1]: Sensitive (S++)

SMILES: O=P1(NCCCl)OCCCN1CCCl (centres unmarked) [Ifosfamide]
- Drug response score, conc. 1 [3]: 0.7257
- Drug response score, conc. 2 [3]: 0.2439
- Drug response score, conc. 3 [3]: 0.9228
- Drug response score, conc. 4 [3]: 0.3682
- effectiveness on Circulating Tumour Cells under laboratory conditions [3]: Sensitive S+
- Drug sensitivity as calculated by the assay (interpretation of Drug Response Scores) [3]: Sensitive (S+)

Source: US20250290915A1, “METHOD FOR PREDICTING RESPONSIVENESS TO THERAPY” (CANCERTAIN LIMITED, priority 2022, published 2025)
